Biological target: T1, CciAA9-X282-CBM1 (Coprinopsis cinerea, UniProt A8NCG7)
T1 construct: gene AA9-X282; AA9-X282-linker-CBM1; C-terminal poly-His tag; Pichia pastoris X33
Test: Amplex Red/HRP oxidase assay (H2O2 production)
Format: biochemical
Details: reductant (electron donor) at 50 uM, O2 as co-substrate; 1 uM enzyme; sodium phosphate 50 mM, pH 7.0

T1 sequence (A8NCG7 19-342): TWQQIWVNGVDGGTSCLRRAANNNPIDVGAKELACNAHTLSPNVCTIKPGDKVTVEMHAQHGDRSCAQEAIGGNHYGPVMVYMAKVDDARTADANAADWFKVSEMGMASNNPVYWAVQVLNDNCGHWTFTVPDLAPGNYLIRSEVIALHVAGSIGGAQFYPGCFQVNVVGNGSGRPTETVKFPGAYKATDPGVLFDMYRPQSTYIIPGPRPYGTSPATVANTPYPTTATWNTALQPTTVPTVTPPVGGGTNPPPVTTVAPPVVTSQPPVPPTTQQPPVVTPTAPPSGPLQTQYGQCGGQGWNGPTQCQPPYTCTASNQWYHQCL

With `O=C1O[C@H]([C@@H](O)CO)C(O)=C1O` [ascorbic acid] the “Amplex Red/HRP oxidase assay (H2O2 production)” value was “all AA9-X282 LPMOs displayed an oxidase (i.e. H2O2 producing) activity”.
